# Measurements from ChEMBL document CHEMBL1126326, “Novel antagonists of the 5-HT3 receptor. Synthesis and structure-activity relationships of (2-alkoxybenzoyl)ureas” (J Med Chem, 1992).
# Target: T1, Serotonin 3 (5-HT3) receptor (Rattus norvegicus, UniProt P35563+Q9JJ16)
# T1 sequence (P35563 whole entry): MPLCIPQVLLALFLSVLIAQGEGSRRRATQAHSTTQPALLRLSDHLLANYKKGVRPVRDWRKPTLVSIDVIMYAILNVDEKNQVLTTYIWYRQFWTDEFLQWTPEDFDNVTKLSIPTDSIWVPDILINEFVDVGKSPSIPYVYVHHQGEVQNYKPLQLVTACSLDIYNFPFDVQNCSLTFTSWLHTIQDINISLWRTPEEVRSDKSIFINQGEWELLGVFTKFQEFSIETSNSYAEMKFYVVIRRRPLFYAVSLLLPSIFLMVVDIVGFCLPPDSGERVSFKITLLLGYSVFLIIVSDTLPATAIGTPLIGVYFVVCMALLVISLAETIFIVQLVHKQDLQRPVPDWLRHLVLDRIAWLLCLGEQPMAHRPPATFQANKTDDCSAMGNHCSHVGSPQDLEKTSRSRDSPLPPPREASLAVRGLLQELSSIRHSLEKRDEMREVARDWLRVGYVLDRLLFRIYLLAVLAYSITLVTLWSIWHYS
# T1 sequence (Q9JJ16 whole entry): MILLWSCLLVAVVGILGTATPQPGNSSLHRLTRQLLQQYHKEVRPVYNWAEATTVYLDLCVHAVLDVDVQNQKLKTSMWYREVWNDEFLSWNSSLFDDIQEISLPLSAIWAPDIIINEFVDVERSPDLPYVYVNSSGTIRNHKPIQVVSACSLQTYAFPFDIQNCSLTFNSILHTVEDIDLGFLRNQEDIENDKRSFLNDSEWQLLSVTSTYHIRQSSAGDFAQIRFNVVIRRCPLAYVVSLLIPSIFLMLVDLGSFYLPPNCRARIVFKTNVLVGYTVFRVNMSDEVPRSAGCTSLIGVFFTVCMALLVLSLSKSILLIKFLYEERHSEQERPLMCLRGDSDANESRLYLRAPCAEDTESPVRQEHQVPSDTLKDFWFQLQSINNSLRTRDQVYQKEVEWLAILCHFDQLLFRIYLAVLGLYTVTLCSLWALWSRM
# Test: In vitro antagonism of the 5-HT-3 receptor determined by inhibition of 5-HT-induced depolarization of the isolated rat vagus nerve.
# Assay type: functional
# Conditions: read-out: pA2 (converted)
row,Structure (SMILES),Kb [nM]
1,COc1ccccc1C(=O)NC(=O)N[C@H]1CN2CCC1CC2,7.08
2,CN1CCC(OC(=O)NC(=O)c2cc(Cl)cc(Cl)c2)CC1,126
3,COc1ccccc1C(=O)NC(=O)NC1CC2CCC(C1)N2C (centres undefined) [listing 1 of 2 here],> 31.6
4,CN1C2CCC1CC(NC(=O)NC(=O)c1ccccc1OCC1CC1)C2 (centres undefined),1.26
5,COc1ccccc1C(=O)NC(=O)N[C@@H]1CN2CCC1CC2,56.2
6,CCOc1ccccc1C(=O)NC(=O)NC1CC2CCC(C1)N2C (centres undefined),2.04
7,COc1ccc(C(=O)NC(=O)NC2CN3CCC2CC3)cc1 (centres undefined),> 316
8,O=C(NC(=O)c1ccccc1F)NC1CN2CCC1CC2 (centres undefined),> 316
9,CC(C)Oc1ccccc1C(=O)NC(=O)NC1CC2CCC(C1)N2C (centres undefined),0.631
10,Cc1ccccc1C(=O)NC(=O)NC1CN2CCC1CC2 (centres undefined),251
11,COc1ccccc1C(=O)NC(=O)NC1CN2CCC1CC2 (centres undefined),10
12,COc1cc([N+](=O)[O-])ccc1C(=O)NC(=O)NC1CC2CCC(C1)N2C (centres undefined),> 100
13,COc1ccccc1C(=O)NC(=O)OC1CN2CCC1CC2 (centres undefined),36.3
14,COc1cccc(OC)c1C(=O)NC(=O)NC1CN2CCC1CC2 (centres undefined),> 316
15,CCCOc1ccccc1C(=O)NC(=O)NC1CC2CCC(C1)N2C (centres undefined),1.26
16,CC(C)COc1ccccc1C(=O)NC(=O)NC1CC2CCC(C1)N2C (centres undefined),3.16
17,CC(C)CCOc1ccccc1C(=O)NC(=O)NC1CC2CCC(C1)N2C (centres undefined),6.31
18,COc1ccccc1C(=O)NC(=O)OC1CC2CCC(C1)N2C (centres undefined),17
19,COc1ccccc1C(=O)NC(=O)NC1CC2CCCC(C1)N2C (centres undefined),39.8
20,CCCCCOc1ccccc1C(=O)NC(=O)NC1CC2CCC(C1)N2C (centres undefined),31.6
21,CN1C2CCC1CC(NC(=O)NC(=O)c1ccccc1O)C2 (centres undefined),12.6
22,CCCCOc1ccccc1C(=O)NC(=O)NC1CC2CCC(C1)N2C (centres undefined),2
23,COc1ccccc1C(=O)NC(=O)NC1CC2CCC(C1)N2C (centres undefined) [listing 2 of 2 here],2.51
24,O=C(NC(=O)c1cc(Cl)cc(Cl)c1)NC1CN2CCC1CC2 (centres undefined),200
25,COc1cc(N)c(Cl)cc1C(=O)NC(=O)NC1CC2CCC(C1)N2C (centres undefined),79.4
26,COc1ccc(Cl)cc1C(=O)NC(=O)NC1CC2CCC(C1)N2C (centres undefined),46.8
27,COc1cc(N)ccc1C(=O)NC(=O)NC1CC2CCC(C1)N2C (centres undefined),158
28,CN1[C@@H]2CC[C@H]1C[C@@H](OC(=O)c1cc(Cl)cc(Cl)c1)C2 [BEMESETRON],15.8
29,COc1cc(N)c(Cl)cc1C(=O)NC1CN2CCC1CC2 (centres undefined) [ZACOPRIDE],0.794
